Reference: the supplement of paper PMC10307832

Tests used:
Experiment in all cases: relative viability (nuclei count vs DMSO), 5 days (fraction); higher = more cells survive
[1] = compound: COc1cc(Nc2ncc3c(n2)-c2ccc(Cl)cc2C(c2c(F)cccc2OC)=NC3)ccc1C(=O)O [Alisertib] + CS(=O)(=O)N1CCN(Cc2cc3nc(-c4cccc5[nH]ncc45)nc(N4CCOCC4)c3s2)CC1 [Pictilisib] (partner 1 µM)
In short: (§1)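 Medians of duplicate plates are given as relative viability. That measure is the nuclei count in treated wells divided by the count in vehicle wells. Counts were taken on 4× images of lung cancer cell lines in 1536-well plates, 5 days after pin-tool dosing the day after seeding with one drug alone or a fixed anchor-drug dose plus five library-drug doses (not always all listed) in √10 steps.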

[2] = compound: COc1cc(Nc2ncc3c(n2)-c2ccc(Cl)cc2C(c2c(F)cccc2OC)=NC3)ccc1C(=O)O [Alisertib] + CC1(C)CCC(c2ccc(Cl)cc2)=C(CN2CCN(c3ccc(C(=O)NS(=O)(=O)c4ccc(N[C@H](CCN5CCOCC5)CSc5ccccc5)c(S(=O)(=O)C(F)(F)F)c4)cc3)CC2)C1 [Navitoclax] (partner 0.5 µM)
In short: as §1

[3] = compound: COc1cc(Nc2ncc3c(n2)-c2ccc(Cl)cc2C(c2c(F)cccc2OC)=NC3)ccc1C(=O)O [Alisertib] + CC(C)C[C@H](NC(=O)[C@H](Cc1ccccc1)NC(=O)c1cnccn1)B(O)O [Bortezomib] (partner 0.002 µM)
In short: as §1

[4] = compound: COc1cc(Nc2ncc3c(n2)-c2ccc(Cl)cc2C(c2c(F)cccc2OC)=NC3)ccc1C(=O)O [Alisertib] + C[C@]1(O)C[C@@H](c2nc(-c3ccc4ccc(-c5ccccc5)nc4c3)c3c(N)nccn32)C1 [Linsitinib] (partner 1 µM)
In short: as §1

[5] = compound: COc1cc(Nc2ncc3c(n2)-c2ccc(Cl)cc2C(c2c(F)cccc2OC)=NC3)ccc1C(=O)O [Alisertib] + O=C(c1cc(Cc2n[nH]c(=O)c3ccccc23)ccc1F)N1CCN(C(=O)C2CC2)CC1 [Olaparib] (partner 8 µM)
In short: as §1

[6] = compound: COc1cc(Nc2ncc3c(n2)-c2ccc(Cl)cc2C(c2c(F)cccc2OC)=NC3)ccc1C(=O)O [Alisertib] + C[C@@H](Oc1cc(-c2cnn(C3CCNCC3)c2)cnc1N)c1c(Cl)ccc(F)c1Cl [Crizotinib] (partner 1 µM)
In short: as §1

[7] = compound: COc1cc(Nc2ncc3c(n2)-c2ccc(Cl)cc2C(c2c(F)cccc2OC)=NC3)ccc1C(=O)O [Alisertib] + COc1cc2c(Oc3ccc(NC(=O)C4(C(=O)Nc5ccc(F)cc5)CC4)cc3F)ccnc2cc1OCCCN1CCOCC1 [Foretinib] (partner 0.25 µM)
In short: as §1

[8] = compound: COc1cc(Nc2ncc3c(n2)-c2ccc(Cl)cc2C(c2c(F)cccc2OC)=NC3)ccc1C(=O)O [Alisertib] + Cc1nc(NC(=O)N2CCC[C@H]2C(N)=O)sc1-c1ccnc(C(C)(C)C(F)(F)F)c1 [Alpelisib] (partner 2 µM)
In short: as §1

[9] = compound: COc1cc(Nc2ncc3c(n2)-c2ccc(Cl)cc2C(c2c(F)cccc2OC)=NC3)ccc1C(=O)O [Alisertib] + CS(=O)(=O)CCNCc1ccc(-c2ccc3ncnc(Nc4ccc(OCc5cccc(F)c5)c(Cl)c4)c3c2)o1 [Lapatinib] (partner 2 µM)
In short: as §1

[10] = compound: COc1cc(Nc2ncc3c(n2)-c2ccc(Cl)cc2C(c2c(F)cccc2OC)=NC3)ccc1C(=O)O [Alisertib]
In short: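 Following overnight incubation at 37 °C, lung cancer cell lines in 1536-well plates were pinned with five library-drug doses (not always all listed) in √10 steps on vehicle-anchored plates. The cells then spent 5 days without medium change before a combined fix, permeabilisation and Hoechst stain, 4× imaging and MetaXpress nuclear counts. Viability is the treated-to-vehicle ratio of nuclei, taken as the median across plates. Only plates with control CV below 25% and at least one doubling passed.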

[11] = compound: COc1cc(Nc2ncc3c(n2)-c2ccc(Cl)cc2C(c2c(F)cccc2OC)=NC3)ccc1C(=O)O [Alisertib] + N=C(N)NC(=N)NCCc1ccccc1 [Phenformin] (partner 250 µM)
In short: as §1

[12] = compound: COc1cc(Nc2ncc3c(n2)-c2ccc(Cl)cc2C(c2c(F)cccc2OC)=NC3)ccc1C(=O)O [Alisertib] + Cc1nc(Nc2ncc(C(=O)Nc3c(C)cccc3Cl)s2)cc(N2CCN(CCO)CC2)n1 [Dasatinib] (partner 0.075 µM)
In short: as §1

[13] = compound: COc1cc(Nc2ncc3c(n2)-c2ccc(Cl)cc2C(c2c(F)cccc2OC)=NC3)ccc1C(=O)O [Alisertib] + Cc1cc(Nc2cc(N3CCN(C)CC3)nc(Sc3ccc(NC(=O)C4CC4)cc3)n2)n[nH]1 [Tozasertib] (partner 0.1 µM)
In short: as §1

[14] = compound: COc1cc(Nc2ncc3c(n2)-c2ccc(Cl)cc2C(c2c(F)cccc2OC)=NC3)ccc1C(=O)O [Alisertib] + COc1cccc2cc(-c3nc([C@H]4CC[C@H](C(=O)O)CC4)n4ncnc(N)c34)[nH]c12 [OSI-027] (partner 0.5 µM)
In short: as §1

[15] = compound: COc1cc(Nc2ncc3c(n2)-c2ccc(Cl)cc2C(c2c(F)cccc2OC)=NC3)ccc1C(=O)O [Alisertib] + CCNC(=O)c1noc(-c2cc(C(C)C)c(O)cc2O)c1-c1ccc(CN2CCOCC2)cc1 [Luminespib] (partner 0.01 µM)
In short: as §1

Q: For EBC-1, which relative viability ([1]; first compound 0.005 µM) is on record?
A: 0.394

Q: And the relative viability ([1]; first compound 0.01581 µM)?
A: 0.282

Q: What about the relative viability ([1]; first compound 0.05 µM) of the same cell line?
A: 0.112

Q: And the relative viability ([1]; first compound 0.1581 µM)?
A: 0.158

Q: What about the relative viability ([1]; first compound 0.5 µM) of the same cell line?
A: 0.121

Q: And the relative viability ([2]; first compound 0.005 µM)?
A: 0.298

Q: What about the relative viability ([2]; first compound 0.01581 µM) of the same cell line?
A: 0.278

Q: And the relative viability ([2]; first compound 0.05 µM)?
A: 0.131

Q: And the relative viability ([2]; first compound 0.1581 µM)?
A: 0.17

Q: And the relative viability ([2]; first compound 0.5 µM)?
A: 0.167

Q: What about the relative viability ([3]; first compound 0.005 µM) of the same cell line?
A: 0.537

Q: And the relative viability ([3]; first compound 0.01581 µM)?
A: 0.467

Q: What about the relative viability ([3]; first compound 0.05 µM) of the same cell line?
A: 0.239

Q: What about the relative viability ([3]; first compound 0.1581 µM) of the same cell line?
A: 0.186

Q: And the relative viability ([3]; first compound 0.5 µM)?
A: 0.162

Q: What about the relative viability ([4]; first compound 0.005 µM) of the same cell line?
A: 0.678

Q: What about the relative viability ([4]; first compound 0.01581 µM) of the same cell line?
A: 0.731

Q: And the relative viability ([4]; first compound 0.05 µM)?
A: 0.211

Q: What about the relative viability ([4]; first compound 0.1581 µM) of the same cell line?
A: 0.179

Q: And the relative viability ([4]; first compound 0.5 µM)?
A: 0.147

Q: And the relative viability ([5]; first compound 0.005 µM)?
A: 0.609

Q: And the relative viability ([5]; first compound 0.01581 µM)?
A: 0.478

Q: What about the relative viability ([5]; first compound 0.05 µM) of the same cell line?
A: 0.195

Q: What about the relative viability ([5]; first compound 0.1581 µM) of the same cell line?
A: 0.216

Q: And the relative viability ([5]; first compound 0.5 µM)?
A: 0.132

Q: And the relative viability ([6]; first compound 0.005 µM)?
A: 0.177

Q: And the relative viability ([6]; first compound 0.01581 µM)?
A: 0.189

Q: What about the relative viability ([6]; first compound 0.05 µM) of the same cell line?
A: 0.174

Q: And the relative viability ([6]; first compound 0.1581 µM)?
A: 0.139

Q: What about the relative viability ([6]; first compound 0.5 µM) of the same cell line?
A: 0.155

Q: What about the relative viability ([7]; first compound 0.005 µM) of the same cell line?
A: 0.109

Q: And the relative viability ([7]; first compound 0.01581 µM)?
A: 0.103

Q: What about the relative viability ([7]; first compound 0.05 µM) of the same cell line?
A: 0.08

Q: What about the relative viability ([7]; first compound 0.1581 µM) of the same cell line?
A: 0.0764

Q: And the relative viability ([7]; first compound 0.5 µM)?
A: 0.0821

Q: And the relative viability ([8]; first compound 0.005 µM)?
A: 0.578

Q: What about the relative viability ([8]; first compound 0.01581 µM) of the same cell line?
A: 0.597

Q: What about the relative viability ([8]; first compound 0.05 µM) of the same cell line?
A: 0.272

Q: What about the relative viability ([8]; first compound 0.1581 µM) of the same cell line?
A: 0.225

Q: What about the relative viability ([8]; first compound 0.5 µM) of the same cell line?
A: 0.153

Q: And the relative viability ([9]; first compound 0.005 µM)?
A: 0.224

Q: And the relative viability ([9]; first compound 0.01581 µM)?
A: 0.21

Q: What about the relative viability ([9]; first compound 0.05 µM) of the same cell line?
A: 0.188

Q: And the relative viability ([9]; first compound 0.1581 µM)?
A: 0.178

Q: And the relative viability ([9]; first compound 0.5 µM)?
A: 0.152

Q: What about the relative viability ([10]; 0.005 µM) of the same cell line?
A: 0.875

Q: And the relative viability ([10]; 0.01581 µM)?
A: 0.806

Q: What about the relative viability ([10]; 0.05 µM) of the same cell line?
A: 0.373

Q: What about the relative viability ([10]; 0.1581 µM) of the same cell line?
A: 0.183

Q: And the relative viability ([10]; 0.5 µM)?
A: 0.162

Q: For NCI-H1623, which relative viability ([11]; first compound 0.005 µM) is on record?
A: 0.619

Q: What about the relative viability ([11]; first compound 0.01581 µM) of the same cell line?
A: 0.592

Q: What about the relative viability ([11]; first compound 0.05 µM) of the same cell line?
A: 0.501

Q: And the relative viability ([11]; first compound 0.1581 µM)?
A: 0.382

Q: What about the relative viability ([11]; first compound 0.5 µM) of the same cell line?
A: 0.337

Q: And the relative viability ([12]; first compound 0.005 µM)?
A: 0.587

Q: And the relative viability ([12]; first compound 0.01581 µM)?
A: 0.647

Q: And the relative viability ([12]; first compound 0.05 µM)?
A: 0.573

Q: What about the relative viability ([12]; first compound 0.1581 µM) of the same cell line?
A: 0.344

Q: And the relative viability ([12]; first compound 0.5 µM)?
A: 0.337

Q: And the relative viability ([13]; first compound 0.005 µM)?
A: 0.37

Q: What about the relative viability ([13]; first compound 0.01581 µM) of the same cell line?
A: 0.398

Q: And the relative viability ([13]; first compound 0.05 µM)?
A: 0.424

Q: And the relative viability ([13]; first compound 0.1581 µM)?
A: 0.386

Q: And the relative viability ([13]; first compound 0.5 µM)?
A: 0.425

Q: And the relative viability ([7]; first compound 0.005 µM)?
A: 0.884

Q: What about the relative viability ([7]; first compound 0.01581 µM) of the same cell line?
A: 0.848

Q: What about the relative viability ([7]; first compound 0.05 µM) of the same cell line?
A: 0.569

Q: And the relative viability ([7]; first compound 0.1581 µM)?
A: 0.425

Q: What about the relative viability ([7]; first compound 0.5 µM) of the same cell line?
A: 0.424

Q: And the relative viability ([14]; first compound 0.005 µM)?
A: 0.439

Q: And the relative viability ([14]; first compound 0.01581 µM)?
A: 0.439

Q: And the relative viability ([14]; first compound 0.05 µM)?
A: 0.398

Q: What about the relative viability ([14]; first compound 0.1581 µM) of the same cell line?
A: 0.295

Q: What about the relative viability ([14]; first compound 0.5 µM) of the same cell line?
A: 0.309

Q: And the relative viability ([15]; first compound 0.005 µM)?
A: 0.499

Q: What about the relative viability ([15]; first compound 0.01581 µM) of the same cell line?
A: 0.496

Q: What about the relative viability ([15]; first compound 0.05 µM) of the same cell line?
A: 0.385

Q: And the relative viability ([15]; first compound 0.1581 µM)?
A: 0.33

Q: And the relative viability ([15]; first compound 0.5 µM)?
A: 0.379

Q: What about the relative viability ([10]; 0.005 µM) of the same cell line?
A: 0.841

Q: And the relative viability ([10]; 0.01581 µM)?
A: 0.856

Q: And the relative viability ([10]; 0.05 µM)?
A: 0.656

Q: And the relative viability ([10]; 0.1581 µM)?
A: 0.4

Q: And the relative viability ([10]; 0.5 µM)?
A: 0.395
